In patent publication US20240287042A1, “NOVEL COMPOUND HAVING INHIBITORY ACTIVITY AGAINST PENDRIN, AND PHARMACEUTICAL USES THEREOF” (UIF (University Industry Foundation), Yonsei University, priority 2021, published 2024):

Molecular target: T1, human wild-type (WT)-pendrin (Homo sapiens, UniProt O43511)
T1 construct: expressed in transfected cells
T1 sequence (O43511 1-780): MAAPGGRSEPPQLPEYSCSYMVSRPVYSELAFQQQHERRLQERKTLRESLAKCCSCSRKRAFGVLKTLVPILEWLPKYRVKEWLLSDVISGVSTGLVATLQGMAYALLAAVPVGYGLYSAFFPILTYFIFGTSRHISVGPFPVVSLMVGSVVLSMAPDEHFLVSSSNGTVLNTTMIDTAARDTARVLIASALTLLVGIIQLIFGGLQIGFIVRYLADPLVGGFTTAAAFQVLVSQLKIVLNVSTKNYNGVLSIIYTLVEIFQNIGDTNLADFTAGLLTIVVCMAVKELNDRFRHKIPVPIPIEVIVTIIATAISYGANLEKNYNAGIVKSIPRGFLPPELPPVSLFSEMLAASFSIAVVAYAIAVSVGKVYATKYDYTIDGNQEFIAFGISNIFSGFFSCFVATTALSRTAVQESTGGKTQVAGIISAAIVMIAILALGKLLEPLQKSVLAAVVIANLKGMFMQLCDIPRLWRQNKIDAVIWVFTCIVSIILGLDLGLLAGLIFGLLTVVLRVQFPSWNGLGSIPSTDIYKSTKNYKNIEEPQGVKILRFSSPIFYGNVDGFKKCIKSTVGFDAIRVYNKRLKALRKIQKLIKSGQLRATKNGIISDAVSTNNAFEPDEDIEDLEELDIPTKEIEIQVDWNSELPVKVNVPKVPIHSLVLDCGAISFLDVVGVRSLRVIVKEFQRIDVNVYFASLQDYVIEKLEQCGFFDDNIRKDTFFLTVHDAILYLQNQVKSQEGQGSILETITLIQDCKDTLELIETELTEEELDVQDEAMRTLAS
Experiment: Pendrin Cl−/I− exchange inhibitory activity, YFP fluorescence in CHO-K1 cells
Assay type: cell-based
Settings: for IC50: CHO-K1-YFP cells, read-out: IC50 of pendrin-induced Cl−/I− anion exchange; for IC50 / Inhibition of pendrin-induced Cl−/I− anion exchange: FIG. 1; for inhibition at 1 µM / inhibition at 3 µM / inhibition at 10 µM / inhibition at 30 µM / inhibition at 100 µM: CHO-K1; for inhibition at 1 µM: compound concentration 1 μM; for inhibition at 3 µM: compound concentration 3 μM; for inhibition at 10 µM: compound concentration 10 μM; for inhibition at 30 µM: compound concentration 30 μM; for inhibition at 100 µM: compound concentration 100 μM
In short: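 CHO-K1 cells stably co-expressing human WT pendrin and YFP-F46L/H148Q/I152L were preincubated with compound (1–100 µM, or 50 µM single dose) for 10 min at 37°C in HEPES buffer, pH 7.4. NaI solution was then injected and YFP quenching was recorded; the initial iodide influx rate came from the initial fluorescence slope.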

Row | IC50 | inhibition at 1 µM | inhibition at 3 µM | inhibition at 10 µM | inhibition at 30 µM | inhibition at 100 µM | Inhibition of pendrin-induced Cl−/I− anion exchange | Efficacy on pendrin relative to YPI-H05 (ratio of IC50 values) | SMILES
1 | 570 nM | 70.5% | 93.6% | 100% | 100% | 100% | in a concentration-dependent manner | approximately 5 times | Cc1ccc2[nH]c(C(=O)O)c(CC(=O)N3CCN(c4c(C)cccc4Cl)CC3)c2c1 [YPI-A4948, 3-(2-(4-(2-Chloro-6-methylphenyl)piperazin-1-yl)-2-oxoethyl)-5-methyl-1H-indole-2-carboxylic acid]
2 | 2700 nM | < 20% | 24.6% | 67.9% | 95.4% | 96.5% | in a concentration-dependent manner |  | Cc1ccc(C)c(N2CCN(C(=O)Cc3c(C(=O)O)[nH]c4ccc(Cl)cc34)CC2)c1 [YPI-H05, 5-chloro-3-(2-(4-(2,5-dimethylphenyl)piperazin-1-yl-)-2-oxoethyl)-1H-indole-2-carboxylic acid]
